Series [1] addresses T1, APLP1 E2 (Homo sapiens, UniProt P51693).
T1 construct: E2 domain, residues 290-495, secreted from Pichia pastoris (pPICZalpha), N-glycosylated fraction removed; dimeric arrangement in crystal
T1 sequence (P51693 290-495): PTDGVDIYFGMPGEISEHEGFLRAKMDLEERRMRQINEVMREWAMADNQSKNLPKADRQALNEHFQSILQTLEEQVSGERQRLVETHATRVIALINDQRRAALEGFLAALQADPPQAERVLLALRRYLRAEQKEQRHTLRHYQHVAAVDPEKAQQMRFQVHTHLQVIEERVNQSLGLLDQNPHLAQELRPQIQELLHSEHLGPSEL
Kind of series: thermal denaturation (Thermofluor, SYPRO Orange). It counts as binding. The note with it: 10 µM protein, 50 µM oligosaccharide, phosphate pH 5.7, 100 mM NaCl; reference Tm without ligand 43.6 ± 0.2 °C. For orientation: DSF heats the sample and reads unfolding from a dye or from intrinsic fluorescence.

Series [2] concerns the target T1, APLP1 E2. Kind of series: X-ray co-crystal structure, […] Å. The note with it: equimolar 0.5 mM; pH 6.1-6.3; two binding modes: chain a nonreducing end at dimer centre, chain b on one protomer.
Series [3] deals with the molecule itself. Kind of series: crystal structure; apo APLP1 E2, orthorhombic crystal form (P212121), 2.6 Å; crystals grown at 20°C in 0.1 M sodium citrate pH 5.6, 0.9 M (NH4)H2PO4, 25% glycerol; two molecules in the asymmetric unit.

The values that follow come from publication PMC4356362, “Interaction of the amyloid precursor protein-like protein 1 (APLP1) E2 domain with heparan sulfate involves two distinct binding modes” (Acta Crystallographica Section D: Biological Crystallography, 2015).

As usually defined, the Tm is the temperature at which the thermal transition is half complete. Take `O=C(O)C1=C[C@H](O)[C@@H](OS(=O)(=O)O)[C@H](O[C@H]2[C@H](O)[C@@H](NS(=O)(=O)O)[C@@H](O[C@H]3[C@H](O)[C@@H](OS(=O)(=O)O)[C@H](O[C@H]4[C@H](O)[C@@H](NS(=O)(=O)O)C(O)O[C@@H]4COS(=O)(=O)O)O[C@H]3C(=O)O)O[C@@H]2COS(=O)(=O)O)O1` (stereo partly drawn) [dp4, heparin tetrasaccharide]: the Tm at APLP1 E2 [1] was found to be 46.9 ± 0.3 °C.

Regarding `O=C(O)C1=C[C@H](O)[C@@H](OS(=O)(=O)O)[C@H](O[C@H]2[C@H](O)[C@@H](NS(=O)(=O)O)[C@@H](O[C@H]3[C@H](O)[C@@H](OS(=O)(=O)O)[C@H](O[C@H]4[C@H](O)[C@@H](NS(=O)(=O)O)[C@@H](O[C@H]5[C@H](O)[C@@H](OS(=O)(=O)O)[C@H](O[C@H]6[C@H](O)[C@@H](NS(=O)(=O)O)[C@@H](O[C@H]7[C@H](O)[C@@H](OS(=O)(=O)O)[C@H](O[C@H]8[C@H](O)[C@@H](NS(=O)(=O)O)C(O)O[C@@H]8COS(=O)(=O)O)O[C@H]7C(=O)O)O[C@@H]6COS(=O)(=O)O)O[C@H]5C(=O)O)O[C@@H]4COS(=O)(=O)O)O[C@H]3C(=O)O)O[C@@H]2COS(=O)(=O)O)O1` (stereo partly drawn) [dp8, heparin octasaccharide], the Tm on APLP1 E2 [1] came out at 53.5 ± 0.5 °C.

With `O=C(O)C1=C[C@H](O)[C@@H](OS(=O)(=O)O)[C@H](O[C@H]2[C@H](O)[C@@H](NS(=O)(=O)O)[C@@H](O[C@H]3[C@H](O)[C@@H](OS(=O)(=O)O)[C@H](O[C@H]4[C@H](O)[C@@H](NS(=O)(=O)O)[C@@H](O[C@H]5[C@H](O)[C@@H](OS(=O)(=O)O)[C@H](O[C@H]6[C@H](O)[C@@H](NS(=O)(=O)O)[C@@H](O[C@H]7[C@H](O)[C@@H](OS(=O)(=O)O)[C@H](O[C@H]8[C@H](O)[C@@H](NS(=O)(=O)O)[C@@H](O[C@H]9[C@H](O)[C@@H](OS(=O)(=O)O)[C@H](O[C@H]%10[C@H](O)[C@@H](NS(=O)(=O)O)[C@@H](O[C@H]%11[C@H](O)[C@@H](OS(=O)(=O)O)[C@H](O[C@H]%12[C@H](O)[C@@H](NS(=O)(=O)O)C(O)O[C@@H]%12COS(=O)(=O)O)O[C@H]%11C(=O)O)O[C@@H]%10COS(=O)(=O)O)O[C@H]9C(=O)O)O[C@@H]8COS(=O)(=O)O)O[C@H]7C(=O)O)O[C@@H]6COS(=O)(=O)O)O[C@H]5C(=O)O)O[C@@H]4COS(=O)(=O)O)O[C@H]3C(=O)O)O[C@@H]2COS(=O)(=O)O)O1` (stereo partly drawn) [dp12, heparin dodecasaccharide], at APLP1 E2 [1], the Tm was determined as 55.6 ± 0.5 °C. In addition, on APLP1 E2 [2], the “X-ray co-crystal structure, 2.5 Å” value was “coordinates of APLP1 E2 in complex with heparin”.

With `O=C(O)C1=C[C@H](O)[C@@H](OS(=O)(=O)O)[C@H](O[C@H]2[C@H](O)[C@@H](NS(=O)(=O)O)[C@@H](O[C@H]3[C@H](O)[C@@H](OS(=O)(=O)O)[C@H](O[C@H]4[C@H](O)[C@@H](NS(=O)(=O)O)[C@@H](O[C@H]5[C@H](O)[C@@H](OS(=O)(=O)O)[C@H](O[C@H]6[C@H](O)[C@@H](NS(=O)(=O)O)[C@@H](O[C@H]7[C@H](O)[C@@H](OS(=O)(=O)O)[C@H](O[C@H]8[C@H](O)[C@@H](NS(=O)(=O)O)[C@@H](O[C@H]9[C@H](O)[C@@H](OS(=O)(=O)O)[C@H](O[C@H]%10[C@H](O)[C@@H](NS(=O)(=O)O)[C@@H](O[C@H]%11[C@H](O)[C@@H](OS(=O)(=O)O)[C@H](O[C@H]%12[C@H](O)[C@@H](NS(=O)(=O)O)[C@@H](O[C@H]%13[C@H](O)[C@@H](OS(=O)(=O)O)[C@H](O[C@H]%14[C@H](O)[C@@H](NS(=O)(=O)O)[C@@H](O[C@H]%15[C@H](O)[C@@H](OS(=O)(=O)O)[C@H](O[C@H]%16[C@H](O)[C@@H](NS(=O)(=O)O)C(O)O[C@@H]%16COS(=O)(=O)O)O[C@H]%15C(=O)O)O[C@@H]%14COS(=O)(=O)O)O[C@H]%13C(=O)O)O[C@@H]%12COS(=O)(=O)O)O[C@H]%11C(=O)O)O[C@@H]%10COS(=O)(=O)O)O[C@H]9C(=O)O)O[C@@H]8COS(=O)(=O)O)O[C@H]7C(=O)O)O[C@@H]6COS(=O)(=O)O)O[C@H]5C(=O)O)O[C@@H]4COS(=O)(=O)O)O[C@H]3C(=O)O)O[C@@H]2COS(=O)(=O)O)O1` (stereo partly drawn) [dp16], on APLP1 E2 [1], the Tm entry was “a slight stability increase of APLP1 was induced by chain lengths beyond eight sugar rings”.

B1: APLP1 E2 domain (amyloid precursor protein-like protein 1, E2 domain) (domain or fragment, human, UniProt P51693 290-495, looked up)
chain: T1 sequence (P51693 290-495)
notes: E2 domain of human amyloid precursor protein-like protein 1 (APLP1), amino acids 290-495; Nonglycosylated fraction used; Two protomers in the asymmetric unit of both crystal forms; also called E2 domain of APLP1; apo APLP1 E2
In the case of B1, the binding result in series [3] is “binds”.
